The record followed here is BindingDB's records for doi:10.1021/jm00161a009 (1986).

SMILES strings stand for the structures.

The target in the test is T1, Carnitine palmitoyl transferase I liver isoform (Sus scrofa, UniProt Q9MYX2).
T1 sequence (Q9MYX2 whole entry): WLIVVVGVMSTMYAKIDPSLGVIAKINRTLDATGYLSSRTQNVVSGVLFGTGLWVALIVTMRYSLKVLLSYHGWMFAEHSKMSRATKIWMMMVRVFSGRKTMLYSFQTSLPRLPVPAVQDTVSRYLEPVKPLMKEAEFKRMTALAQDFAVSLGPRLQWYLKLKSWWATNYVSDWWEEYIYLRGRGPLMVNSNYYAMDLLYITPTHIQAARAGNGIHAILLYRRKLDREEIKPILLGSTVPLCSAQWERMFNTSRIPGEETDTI
As to the kind of experiment: ChEBML_44012. Here is the method: Compound was tested for its inhibitory activity against carnitine palmitoyl transferase-A (CPT-A)
Usually IC50 stands for the concentration that gives 50% inhibition. The low end stands for inhibition by little substance, the high end for a need for much substance. Compound `CCCCCCCCCCCCCCC1(C(=O)OC)CO1` (racemic) [2-Tetradecyl-oxirane-2-carboxylic acid methyl ester] registered an IC50 of 300 nM.
Next, `CCCCCCCCCCCCCC1(C(=O)OC)CO1` (configuration not stated) [2-Tridecyl-oxirane-2-carboxylic acid methyl ester]: 500 nM.
In the case of `CCCCCCCCCCCCCCC1(C(=O)O)CO1` (stereo not drawn) [(+/-)2-Tetradecyl-oxirane-2-carboxylic acid], the midpoint of inhibition, the IC50, lay at 900 nM.
Next, `CCCCCCCCCCC1(C(=O)OC)CO1` (configuration not stated) [2-Decyl-oxirane-2-carboxylic acid methyl ester]: 680 nM; `CCCCCCC1(C(=O)OC)CO1` (configuration not stated) [2-Hexyl-oxirane-2-carboxylic acid methyl ester]: 136000 nM.
Next, `CCCCCCCCCCCC1(C(=O)OC)CO1` (configuration not stated) [2-Undecyl-oxirane-2-carboxylic acid methyl ester]: 1160 nM; `CCCCCCCCCCCCC1(C(=O)OC)CO1` (configuration not stated) [2-Dodecyl-oxirane-2-carboxylic acid methyl ester]: 600 nM.
